From patent US10874646B2, “Epothilone analogs, methods of synthesis, methods of treatment, and drug conjugates thereof” (WILLIAM MARSH RICE UNIVERSITY, priority 2015, dated 2020) come the findings set out here.

Molecules are shown by their SMILES. Some results are limits rather than exact numbers.

For experiment [1], the system named is NCI-60 human cancer cell line panel. The experiment can be described thus: NCI-60 initial one dose test. The format is cell-based. The settings on record: 10 μM. The source says: (§1) Biological evaluation. The synthesized epothilone analogues were submitted to the NCI for testing against the NCI-60 human cancer cell line panel (Shoemaker, 2006).
The next experiment relates to tubulin. Kind of experiment: Induction/enhancement of tubulin assembly (Lin, et al., 1996). The experiment is classed as biochemical. Conditions: 10 μM tubulin, 0.4M monosodium glutamate, 30 min at room temperature; Table 2; read-out: induction of tubulin assembly (EC50, μM ± SD).
Another experiment concerns MCF-7. Kind of experiment: Cytotoxicity, standard NCI assay with sulforhodamine B, 96 h. Conditions: Homo sapiens, MCF7, 96 h, read-out: cytotoxicity (GI50, nM ± SD) MCF-7.
Another experiment relates to OVCAR-8. Described as above. The settings on record: Homo sapiens, OVCAR-8, 96 h, read-out: cytotoxicity (GI50, nM ± SD) OVCAR-8.
For the next experiment, the system named is A498. The experiment can be described thus: NCI-60 human cancer cell line panel, five dose screen. The format is cell-based. The settings on record: NCI-60 five dose screen.
Description: as §1

Another experiment deals with A549/ATCC. The experiment is described as above. The format is cell-based. Conditions: NCI-60 five dose screen.
Description: as §1

A further experiment has as its system CCRF-CEM. Described as above. The experiment is classed as cell-based. Conditions: NCI-60 five dose screen.
Description: as §1

A further experiment relates to COLO 205. The experiment is described as above. The experiment is classed as cell-based. Conditions: NCI-60 five dose screen.
Description: as §1

The subject of the next experiment is HCT-116. The description is as above. The experiment is classed as cell-based. Conditions: NCI-60 five dose screen.
Description: as §1

The subject of another experiment is HCT-15. The experiment is described as above. The experiment is classed as cell-based. The settings on record: NCI-60 five dose screen.
Description: as §1

Another experiment relates to HL-60(TB). Described as above. The format is cell-based. The settings on record: NCI-60 five dose screen.
Description: as §1

In the next experiment the test system is HOP-92. The description is as above. The experiment is classed as cell-based. The settings on record: NCI-60 five dose screen, dash defined by footnote e, read-out: GI50 (symbol).
Description: as §1

The subject of the next experiment is HS 578T. The description is as above. The settings on record: NCI-60 five dose screen. The experiment is classed as cell-based.
Description: as §1

The next experiment relates to HT29. Described as above. The experiment is classed as cell-based. The settings on record: HT-29, NCI-60 five dose screen.
Description: as §1

Another experiment relates to K-562. The description is as above. The format is cell-based. Conditions: K562, NCI-60 five dose screen.
Description: as §1

Another experiment has as its system KM12. Described as above. The settings on record: NCI-60 five dose screen. The format is cell-based.
Description: as §1

In the next experiment the test system is LOX IMVI. Described as above. The experiment is classed as cell-based. The settings on record: NCI-60 five dose screen.
Description: as §1

A further experiment concerns M14. Described as above. The experiment is classed as cell-based. Conditions: NCI-60 five dose screen.
Description: as §1

Another experiment deals with MCF7. Described as above. The experiment is classed as cell-based. Conditions: NCI-60 five dose screen.
Description: as §1

For a further experiment, the system named is MDA-MB-435. The description is as above. The experiment is classed as cell-based. The settings on record: NCI-60 five dose screen.
Description: as §1

Another experiment concerns MDA-MB-468. The experiment is described as above. Conditions: NCI-60 five dose screen. The format is cell-based.
Description: as §1

The test system of a further experiment is MOLT-4. The experiment is described as above. The format is cell-based. Conditions: NCI-60 five dose screen.
Description: as §1

The next experiment has as its system NCI-H23. Described as above. The experiment is classed as cell-based. Conditions: NCI-60 five dose screen.
Description: as §1

The subject of a further experiment is NCI-H460. The experiment is described as above. The format is cell-based. Conditions: NCI-60 five dose screen.
Description: as §1

The next experiment concerns OVCAR-3. Described as above. The experiment is classed as cell-based. The settings on record: NCI-60 five dose screen.
Description: as §1

For a further experiment, the system named is PC-3. Described as above. The format is cell-based. Conditions: NCI-60 five dose screen.
Description: as §1

The next experiment deals with RPMI-8226. Described as above. The format is cell-based. The settings on record: NCI-60 five dose screen.
Description: as §1

The next experiment deals with RXF 393. The description is as above. The format is cell-based. The settings on record: NCI-60 five dose screen.
Description: as §1

The test system of a further experiment is SF-539. Described as above. Conditions: NCI-60 five dose screen. The experiment is classed as cell-based.
Description: as §1

The test system of another experiment is SK-MEL-5. Described as above. The format is cell-based. Conditions: NCI-60 five dose screen.
Description: as §1

Another experiment relates to SNB-75. The description is as above. The experiment is classed as cell-based. The settings on record: NCI-60 five dose screen.
Description: as §1

A further experiment has as its system SR. Described as above. The format is cell-based. The settings on record: NCI-60 five dose screen.
Description: as §1

The subject of the next experiment is SW-620. The experiment is described as above. The experiment is classed as cell-based. The settings on record: NCI-60 five dose screen.
Description: as §1

The next experiment has as its system U251. Described as above. The experiment is classed as cell-based. The settings on record: U-251, NCI-60 five dose screen.
Description: as §1

Usually EC50 stands for the concentration needed to bring the measured effect to its halfway point. Broadly, the GI50 is the concentration that inhibits growth by half. For `CSc1cc(/C=C(\C)[C@@H]2C[C@@H]3O[C@]3(C)CCC[C@H](C)[C@H](O)[C@@H](C)C(=O)C(C)(C)[C@@H](O)CC(=O)O2)n(CCNC(=O)OC(C)(C)C)n1` [Compound 5], the “activity in initial one dose test” value in experiment [1] is “did not exhibit significant activity”. For the same compound, in the experiment with tubulin, the EC50 was > 40 µM. In addition, the GI50 in the experiment on MCF-7 is 1600 nM; in the experiment with OVCAR-8, 900 nM.
Take `C/C(=C\c1cc(C(F)(F)F)nn1CCNC(=O)OC(C)(C)C)[C@@H]1C[C@@H]2O[C@]2(C)CCC[C@H](C)[C@H](O)[C@@H](C)C(=O)C(C)(C)[C@@H](O)CC(=O)O1` [Compound 6]: the “activity in initial one dose test” value in [1] is “did not exhibit significant activity”. Besides, in the experiment on tubulin, the EC50 is > 40 µM. Besides, the figures for the GI50 in the experiment on MCF-7 and with OVCAR-8 were 4400 nM and 1200 nM, respectively.
Take `C/C(=C\c1cc(C(F)(F)F)nn1CCNC(=O)OCC[Si](C)(C)C)[C@@H]1C[C@@H]2O[C@]2(C)CCC[C@H](C)[C@H](O)[C@@H](C)C(=O)C(C)(C)[C@@H](O)CC(=O)O1` [Compound 7]: the “activity in initial one dose test” value in [1] is “did not exhibit significant activity”. For the same compound, the EC50 in the experiment on tubulin is > 40 µM. Further, the GI50 with MCF-7 was determined as 1800 nM; in the experiment with OVCAR-8, 1300 nM.
Take `C/C(=C\c1ccn(-c2ccc(N)cc2F)n1)[C@@H]1C[C@@H]2O[C@]2(C)CCC[C@H](C)[C@H](O)[C@@H](C)C(=O)C(C)(C)[C@@H](O)CC(=O)O1` [Compound 14]: the GI50 in the experiment with A498 came out at 80.2 nM; in the experiment with A549/ATCC it was 37.6 nM; in the experiment with CCRF-CEM it was 13.6 nM; in the experiment on COLO 205 it was 18.2 nM; with HCT-116, 17.1 nM; in the experiment with HCT-15, 22.6 nM. The GI50 in the experiment on HL-60(TB) is 14.1 nM; in the experiment with HOP-92, > 100 nM; with HS 578T, 37.2 nM; in the experiment on HT29, 18.4 nM; in the experiment on K-562, 20.7 nM; with KM12, 17.7 nM. In addition, the GI50 was determined as 23.1 nM in the experiment with LOX IMVI; 18.7 nM with M14; 14 nM in the experiment on MCF7; 8.35 nM with MDA-MB-435; 20.9 nM in the experiment on MDA-MB-468; 28.3 nM in the experiment with MOLT-4. For the same compound, the GI50 stood at 24.2 nM in the experiment on NCI-H23; 20.8 nM with NCI-H460; 17.6 nM with OVCAR-3; 25.8 nM in the experiment on PC-3; 19.6 nM in the experiment with RPMI-8226; 30.6 nM in the experiment with RXF 393. The concentration for 50% growth inhibition (GI50) in the experiment with SF-539 was 26.2 nM; in the experiment on SK-MEL-5 it was 18 nM; in the experiment on SNB-75, 11.7 nM; with SR, 29.2 nM; in the experiment with SW-620, 23.6 nM; in the experiment with U251, 36.2 nM. In addition, the GI50 with MCF-7 is 14 ± 2 nM; in the experiment with OVCAR-8 it was 38 ± 10 nM. In addition, in the experiment with tubulin, the EC50 was found to be 19 ± 1 µM.
